The source made the active and inactive calls. The rule behind the calls is not given here.

The species named for data set [1] is Rattus norvegicus. In words: Cytoprotection against thapsigargin-induced ER-stress in rat CSM14.1 cells assessed as increase in cell viability preincubated for 2 hrs followed by thapsigargin addition measured after 20 hrs by ATPlite assay relative to thapsigargin treated control. It counts as functional, cell-based. For orientation: ATP-based viability assays read luminescence as a measure of living cells.

The nature of data set [2]: Ratio of drug level in mouse brain to plasma at 10 mg/kg, ip measured after 1 hr. Type of data set: ADME, organism-based. The conditions noted are these: read-out: BPR.
Data set [3] is described as follows: Metabolic stability in human liver microsomes measured after 1 hr. Type of data set: ADME. The conditions noted are these: read-out: Stability. For orientation: Liver microsomes are vesicles of endoplasmic reticulum, rich in cytochrome P450 enzymes.
A short description of data set [4]: Permeability of the compound by PAMPA. Type of data set: ADME. (In general: PAMPA measures passive passage across an artificial lipid membrane.)
A short description of data set [5]: Cytoprotection against thapsigargin-induced ER-stress in rat CSM14.1 cells assessed as cell viability at 15 ug/ml preincubated for 2 hrs followed by thapsigargin addition measured after 20 hrs by ATPlite assay relative to thapsigargin treated control. The conditions noted are these: read-out: Activity. It counts as functional.
Data set [6] is described as follows: Tmax in mouse at 2 mg/kg, po or 1 mg/kg, iv. The conditions noted are these: in vivo. Type of data set: ADME, organism-based.
Data set [7] can be described thus: AUC in mouse at 2 mg/kg, po or 1 mg/kg, iv. It counts as ADME, organism-based. The conditions noted are these: in vivo.
A short description of data set [8]: Metabolic stability in mouse plasma measured after 1 hr. Type of data set: ADME, cell-free. The conditions noted are these: read-out: Stability.
Data set [9] relates to Rattus norvegicus. In words: Antiakinetic activity in 6-OHDA induced unilaterally lesioned Wistar rat Parkinson's disease model assessed as assessed as increase in double contacts compound administered ip, qd for 5 days prior to 6-OHDA-challenge measured on day 11 post 1.5 hr of last dosage by cylinder test. Type of data set: functional.
For data set [10], the system named is Rattus norvegicus. In words: Antiakinetic activity in 6-OHDA induced unilaterally lesioned Wistar rat Parkinson's disease model assessed as restoration of 6-OHDA-induced decrease in number of adjusting steps in contralateral forelimb at 10 mg/kg, ip qd administered 5 days prior to 6-OHDA-challenge measured on day 11 post 1 hr of last dosage. Type of data set: functional, organism-based.

The subject of the next data set is HeLa. In words: Activation of SERCA in human HeLa cells expressing YFP/CFP fused cameleon assessed as reduction in thapsigargin-induced decrease in endoplasmic reticulum calcium level by inverted wide-field fluorescence microscopy. It counts as cell-based.
Data set [11] is described as follows: Cmax in mouse at 2 mg/kg, po or 1 mg/kg, iv. It counts as ADME, organism-based. The conditions noted are these: in vivo.
The species named for the next data set is Homo sapiens. In words: Activation of SERCA (unknown origin).
Data set [12] has as its system Rattus norvegicus. As to the kind of experiment: Antiakinetic activity in 6-OHDA induced unilaterally lesioned Wistar rat Parkinson's disease model assessed as reduction in 6-OHDA-induced increase in initiation time to move towards plane surface at 10 mg/kg, ip qd administered 5 days prior to 6-OHDA-challenge measured 1 hr post compound treatment on day 11 relative to non-lesioned control. It counts as functional, organism-based.

The test system of data set [13] is Rattus norvegicus. As to the kind of experiment: Antiakinetic activity in 6-OHDA induced unilaterally lesioned Wistar rat Parkinson's disease model assessed as reduction in 6-OHDA-induced increase in initiation time to move towards plane surface administered ip qd for 5 days prior to 6-OHDA-challenge measured 1 hr post compound treatment on day 11 relative to non-lesioned control. It counts as functional, organism-based.

Data set [14] concerns Rattus norvegicus. As to the kind of experiment: Antiakinetic activity in 6-OHDA induced unilaterally lesioned Wistar rat Parkinson's disease model assessed as increase in double contacts at 10 mg/kg, ip qd administered 5 days prior to 6-OHDA-challenge measured on day 11 post 1.5 hr of last dosage by cylinder test. It counts as functional, organism-based.
Data set [15] relates to Rattus norvegicus. In words: Antiakinetic activity in 6-OHDA induced unilaterally lesioned Wistar rat Parkinson's disease model assessed as restoration of 6-OHDA-induced decrease in number of adjusting steps in contralateral forelimb administered ip qd for 5 days prior to 6-OHDA-challenge measured on day 11 post 1 hr of last dosage. It counts as functional, organism-based.

Turning to `Cc1ccc2cccc(NC(=O)c3ccc(OC(C)C)cc3)c2n1`, in the data set filed under Rattus norvegicus [1], the Activity result was “Dose-dependent effect”. The Kp at 1 h in data set [2] was 2.83 to 3. The remaining at 1 h in data set [3] was 58%; in [8], 94%. Also, the permeability result in data set [4] was “Permeable”. Moreover, the viability at 15 µg/mL in [5] was 100%. In addition, in data set [6], the Tmax – broadly, the time from dosing to the highest level – was 40.2 min. Further, in data set [7], the AUC (in general, concentration integrated over time) is 0.41 µM·h. In addition, the outcome with Rattus norvegicus [9], in the data set with Rattus norvegicus [10], in the data set on HeLa, in the data set filed under Homo sapiens and in the data set on Rattus norvegicus [12] was Active. Moreover, the Cmax (usually the maximum level reached in the sampled fluid or tissue) in data set [11] amounted to 260 nM.
For `N[C@@H](Cc1ccc(O)c(O)c1)C(=O)O`, the result in the data set on Rattus norvegicus [13], with Rattus norvegicus [14] and with Rattus norvegicus [15] was Active.

Source of the values: ChEMBL document CHEMBL3868596, “A new target for Parkinson's disease: Small molecule SERCA activator CDN1163 ameliorates dyskinesia in 6-OHDA-lesioned rats” (Bioorg Med Chem, 2017).
